Laboratory results taken from publication PMC9505023, “Isatin Bis-Indole and Bis-Imidazothiazole Hybrids: Synthesis and Antimicrobial Activity” (Molecules, 2022).
Where “and” joins values, the source holds several entries; their conditions need not be identical. Identical values can stand only once.

How the values were obtained:
[1] = tested on: Vero cells (ATCC CCL-81); experiment: Cytotoxicity test, WST8-based CCK-8 cell viability; design: species or system African green monkey; Vero cell proliferation: unit: %; details: 100 µM; for Vero cell proliferation: 48 h, cell viability as percentage relative to untreated controls, mean ± SD
Procedure: African green monkey kidney cells (Vero ATCC CCL-81) obtained from ATCC were cultured in Eagle’s minimal essential medium (MEM) (Sigma-Aldrich, St. Louis, MO, USA), supplemented with 10% fetal bovine serum (FBS) (Carlo Erba Reagents, Milan, Italy), 100 U/mL penicillin, and 100 µg/mL streptomycin at 37 °C with 5% CO2. For the experiments, the cells were seeded into 96-well plates at 10^4 cells/well and incubated at 37 °C for 24 h. Following washes with PBS, the cell monolayer was incubated with 100 µL of medium containing 100 µM of the derivatives. Both untreated cells and cells incubated with the solvent were included in each experiment as controls. The cell viability was assessed by a WST8-based assay according to the manufacturer’s instructions (CCK-8, Cell Counting Kit-8, Dojindo Molecular Technologies, Rockville, MD, USA). After 48 h of incubation, the culture medium was removed from each well, the monolayer was washed with PBS, and 100 µL of fresh medium containing 10 µL of CCK-8 solution were added. Following 2 h at 37 °C, the absorbance was measured at 450/630 nm; data were calculated as the percentage of the cell viability relative to the untreated controls.

[2] = tested on: Candida albicans ATCC 10231; experiment: Microdilution broth susceptibility test, C. albicans reference strain; format: cell-based; details: for activity at 100 µM: Candida albicans, ATCC10231, 24 h, growth as percentage relative to positive growth control, mean ± SD, read-out: C. albicans microbial growth
Source text: (§1) Breakpoint tables for interpretation of MICs and zone diameters.

[3] = tested on: Escherichia coli ATCC 25922; experiment: Microdilution broth susceptibility test, E. coli reference strain; format: cell-based; details: ATCC25922, 24 h, growth as percentage relative to positive growth control, mean ± SD, read-out: E. coli microbial growth
Source text: as §1

[4] = tested on: Staphylococcus aureus ATCC 25923; experiment: Microdilution broth susceptibility test, S. aureus reference strain; details: for activity at 100 µM: read-out: S. aureus microbial growth
Procedure: The in vitro antimicrobial activity of the isatin derivatives was evaluated by a microdilution broth method in accordance with the guidelines provided by a number of international committees, such as The Clinical Laboratory Standards Institute (CLSI) in the U.S. or The European Committee on Antimicrobial Susceptibility Testing (EUCAST) in Europe reference bacterial strains, including Staphylococcus aureus (ATCC 25923) and Escherichia coli (ATCC 25922) and Candida albicans (ATCC 10231), were purchased from the American Type Culture Collection (ATCC); they were routinely cultured in 5% sheep blood agar plate and in Sabauraud dextrose agar, respectively, at 37 °C. Clinical isolates, identified by MALDI-TOF MS (Bruker Daltonik, GmbH, Bremen, Germany), were profiled for their antibiotic susceptibility by using the Vitek2 semiautomated system (bioMerieux, Craponne, France) and according to EUCAST guidelines [EUCAST: The European Committee on Antimicrobial Susceptibility Testing. Breakpoint tables for interpretation of MICs and zone diameters. Version 12, 2022, http://www.eucast.org (accessed on 1 January 2022)].
Microbial inocula were prepared at 0.5 McFarland in PBS and, subsequently, bacterial suspensions were diluted 1:200 in Mueller–Hinton broth (Sigma-Aldrich, St. Louis, MO, USA), while fungal inoculum was diluted 1:20 in RPMI-1640 medium (Gibco®, ThermoFisher Scientific Inc., Waltham, MA, USA), containing glucose 2%, 0.3% levo-glutamine buffered to pH 7.0 with 0.165 M 3-(N-morpholino)propanesulfonic acid (MOPS). A total of 100 µL of these microbial suspensions were introduced in a 96-well microplate and treated with 100 µL of the compound at 100 µM or with two-fold serial dilutions of the compound in the range of 400 µM–3.12 µM. All compounds were previously dissolved in 100% DMSO at a concentration of 20 mM. Experiments included controls used to measure the microbial growth in regular medium (positive control) and to check the background turbidity of the reagents and the sterility of the procedures (negative controls). In addition, microbial growths were assessed in the presence of the DMSO solvent in the range of 0.015–2%. The inoculated plate was incubated at 37 °C for 24 h, and subsequently, the optical density at 630 nm was measured by the Multiskan Ascent microplate reader (Thermo Fisher Scientific Inc., Waltham, MA, USA). […] All the experiments were performed on triplicate in at least two independent assays.

[5] = tested on: S. aureus clinical isolates (MSSA and MRSA); experiment: Microdilution broth susceptibility test, S. aureus clinical isolates; format: cell-based; details: Staphylococcus aureus, 10 clinical isolates, read-out: IC50 against S. aureus clinical isolates (range over isolates)
Source text: as §1

[6] = Staphylococcus aureus, ATCC25923, 24 h

Structure (SMILES) | Vero cell proliferation [1] | activity at 100 µM [2] | activity at 100 µM [3] | activity at 100 µM [4, 6] | Cytotoxicity on Vero cells in words [1] | IC50 [5] | Activity against S. aureus in words ([4]; 100 µM) | Efficacy at the highest tested concentration in words ([4]; 400 µM) | Selectivity of antibacterial activity versus cytotoxicity in words ([4]; S. aureus growth compared with Vero cytotoxicity at 100 µM) | IC50 ([4]; Staphylococcus aureus, ATCC25923, 24 h, read-out: IC50 against S. aureus) | Antifungal activity against C. albicans in words ([2]; 100 µM (48.93 µg/mL))
O=C1Nc2cc(OC(F)(F)F)ccc2C1(C1CNc2ccccc21)C1CNc2ccccc21 (stereo not shown) [4l, 6′-(trifluoromethoxy)-[3,3′:3′,3″-terindolin]-2′-one] | 8.9 ±0.4 | 93.3 ± 2.1% | 103 ± 1.6% | 72 ± 2.2% | – | – | – | – | – | – | –
COc1ccc(CN2C(=O)C(c3c(Cl)nc4sccn34)(c3c(Cl)nc4sccn34)c3cc(OC)ccc32)cc1 [6g, 3,3-bis(6-chloroimidazo[2,1-b]thiazol-5-yl)-5-methoxy-1-(4-methoxybenzyl)indolin-2-one] | 84.3 ± 0.9 | 92.4 ± 3.6% | 73.6 ± 9.1% | 67.4 ± 8.4% | – | – | – | – | – | – | –
O=C1Nc2c(Cl)ccc(Cl)c2C1(C1CNc2ccccc21)C1CNc2ccccc21 (stereo not shown) [4f, 4′,7′-dichloro-[3,3′:3′,3″-terindolin]-2′-one] | 9.8 ± 0.5 | 107 ± 4.2% | 96.9 ± 1.7% | 75.8 ± 1.8% | affect Vero cells proliferation | – | – | – | – | – | –
Cc1cc(C)c2c(c1)NC(=O)C2(C1CNc2ccccc21)C1CNc2ccccc21 (stereo not shown) [4e, 4′,6′-dimethyl-[3,3′:3′,3″-terindolin]-2′-one] | 8.5 ± 0.3 | 68.8 ± 2.7% | 103 ± 1.4% | 71.2 ± 8.7% | affect Vero cells proliferation | – | – | – | – | – | –
COc1ccc2c(c1)C(C1(C3CNc4ccc(OC)cc43)C(=O)Nc3cc(OC)c(OC)c(OC)c31)CN2 (stereo not shown) [5d, 4′,5,5′,5″,6′-pentamethoxy-[3,3′:3′,3″-terindolin]-2′-one] | 54.3 ± 0.9 | 120 ± 2% | 117 ± 1.1% | 89.1 ± 7% | – | – | – | – | – | – | –
O=C1Nc2ccccc2C1(c1c(Cl)nc2sccn12)c1c(Cl)nc2sccn12 [6c, 3,3-bis(6-chloroimidazo[2,1-b]thiazol-5-yl)indolin-2-one] | 92.8 ± 4.8 | 126 ± 2.1% | 117 ± 3.1% | 95.4 ± 2.4% | – | – | – | – | – | – | –
COc1ccc2c(c1)C(c1c(Cl)nc3sccn13)(c1c(Cl)nc3sccn13)C(=O)N2 [6k, 3,3-bis(6-chloroimidazo[2,1-b]thiazol-5-yl)-5-methoxyindolin-2-one] | 70.9 ± 5.6 | 104 ± 1.9% | 103 ± 2.4% | 43.4 ± 5.6% | – | 73 to 85.3 µM | highly active | completely inhibit bacterial growth | selective inhibitory property against the Gram-positive strain | 39.1 µg/mL and 80 µM | –
COc1ccc2c(c1)C(C1(C3CNc4ccc(OC)cc43)C(=O)N(Cc3ccc(Cl)cc3)c3ccccc31)CN2 (stereo not shown) [5m, 1′-(4-chlorobenzyl)-5,5″-dimethoxy-[3,3′:3′,3″-terindolin]-2′-one] | 87.0 ± 5.7 | 88.2 ± 5.2% | 113 ± 0.6% | 95.1 ± 3.9% | – | – | – | – | – | – | –
COc1ccc(CN2C(=O)C(C3CNc4ccccc43)(C3CNc4ccccc43)c3cc(OC)ccc32)cc1 (stereo not shown) [4g, 5′-methoxy-1′-(4-methoxybenzyl)-[3,3′:3′,3″-terindolin]-2′-one] | 107.9 ± 8.9 | 50.6 ± 6.6% | 100.3 ± 0.7% | 86.2 ± 5.7% | – | – | – | – | – | – | –
O=C1Nc2cccc(I)c2C1(C1CNc2ccccc21)C1CNc2ccccc21 (stereo not shown) [4h, 4′-iodo-[3,3′:3′,3″-terindolin]-2′-one] | 10.6 ± 0.3 | 23.2 ± 2.1% | 82 ± 1.5% | 72.8 ± 6.1% | affect Vero cells proliferation | – | – | – | – | – | significantly reduced the growth of C. albicans
